One may read the MIC as the lowest concentration that inhibits growth of the organism. As a reminder, the MBC is the smallest concentration meeting the test's criterion for killing. In general, Cmax refers to the peak of the concentration-time curve.

Consider 3 compounds from ChEMBL document CHEMBL1151474, “Replication of Colonic Crohn's Disease Mucosal Escherichia coli Isolates within Macrophages and Their Susceptibility to Antibiotics” (Antimicrob Agents Chemother, 2008).

In data set [1] the test system is Escherichia coli. The experiment in a line: Antibacterial activity against Escherichia coli isolate HM154 isolated from colonic mucosal biopsies of patient with Crohn's disease after 24 hrs by Etest antibiotic concentration gradient method. In kind it is functional. The following applies: isolate HM154, 24 h.
Data set [2] has as its system Escherichia coli. Briefly: Antibacterial activity against Escherichia coli isolate HM580 isolated from colonic mucosal biopsies of patient with Crohn's disease after 24 hrs by Etest antibiotic concentration gradient method. In kind it is functional. The conditions noted are these: isolate HM580, 24 h.
The subject of data set [3] is Escherichia coli. Briefly: Antibacterial activity against Escherichia coli isolate HM605 isolated from colonic mucosal biopsies of patient with Crohn's disease.
For data set [4], the system named is Escherichia coli. Briefly: Antibacterial activity against extracellular Escherichia coli isolate HM605 isolated from colonic mucosal biopsies of patient with Crohn's disease at 0.01 to 10 ug/ml after 3 hrs. The class given is functional, organism-based.
The test system of data set [5] is Escherichia coli. The experiment in a line: Antibacterial activity against gentamicin-treated internalized Escherichia coli isolate HM605 in mouse J774A1 cells isolated from colonic mucosal biopsies of patient with Crohn's disease assessed as intracellular killing of bacteria at 10% compound Cmax after 3 hrs. In kind it is functional, J774.A1.
Data set [6] concerns Escherichia coli. Briefly: Antibacterial activity against gentamicin-treated internalized Escherichia coli isolate LF82 in mouse J774A1 cells isolated from chronic ileal lesions of patient with Crohn's disease assessed as intracellular killing of bacteria at 10% compound Cmax after 3 hrs. In kind it is functional, J774.A1.
The subject of data set [7] is Escherichia coli. Briefly: Antibacterial activity against gentamicin-treated internalized Escherichia coli isolate HM580 in mouse J774A1 cells isolated from colonic mucosal biopsies of patient with Crohn's disease assessed as intracellular killing of bacteria at 10% compound Cmax after 3 hrs. The class given is functional, J774.A1.
In data set [8] the test system is Escherichia coli. Briefly: Antibacterial activity against gentamicin-treated internalized Escherichia coli isolate HM615 in mouse J774A1 cells isolated from colonic mucosal biopsies of patient with Crohn's disease assessed as intracellular killing of bacteria at 10% compound Cmax after 3 hrs. The class given is functional, J774.A1.
The subject of data set [9] is Escherichia coli. Briefly: Antibacterial activity against Escherichia coli isolate HM615 isolated from colonic mucosal biopsies of patient with Crohn's disease after 24 hrs by Etest antibiotic concentration gradient method. In kind it is functional. The conditions noted are these: isolate HM615, 24 h.
Data set [10] relates to Escherichia coli. The experiment in a line: Antibacterial activity Escherichia coli isolate HM413 isolated from ileo-colonic mucosal biopsies of patient with Crohn's disease after 24 hrs by Etest antibiotic concentration gradient method. The class given is functional. The conditions noted are these: isolate HM413, 24 h.
For data set [11], the system named is Escherichia coli. Briefly: Antibacterial activity Escherichia coli isolate HM419 isolated from ileo-colonic mucosal biopsies of patient with Crohn's disease after 24 hrs by Etest antibiotic concentration gradient method. In kind it is functional. The conditions noted are these: isolate HM419, 24 h.
The subject of data set [12] is Escherichia coli. Briefly: Antibacterial activity against Escherichia coli isolate HM95 isolated from ileal mucosal biopsies of patient with Crohn's disease after 24 hrs by Etest antibiotic concentration gradient method. The class given is functional. The conditions noted are these: isolate HM95, 24 h.
Data set [13] deals with Escherichia coli. The experiment in a line: Antibacterial activity against mucosa-associated Escherichia coli isolate HM428 isolated from patient with irritable bowel syndrome or sporadic polyps after 24 hrs by Etest antibiotic concentration gradient method. The class given is functional. The following applies: isolate HM428, 24 h.
Data set [14] deals with Escherichia coli. The experiment in a line: Antibacterial activity against mucosa-associated Escherichia coli isolate HM454 isolated from patient with irritable bowel syndrome or sporadic polyps after 24 hrs by Etest antibiotic concentration gradient method. In kind it is functional. The following applies: isolate HM454, 24 h.
For data set [15], the system named is Escherichia coli. Briefly: Antibacterial activity against mucosa-associated Escherichia coli isolate HM456 isolated from patient with irritable bowel syndrome or sporadic polyps after 24 hrs by Etest antibiotic concentration gradient method. The conditions noted are these: isolate HM456, 24 h. In kind it is functional.
Data set [16] has as its system J774.A1. Briefly: Cytotoxicity against mouse J774A1 cells assessed as release of adenylate kinase at 100 ug/ml after 3 hrs […] relative to control. In kind it is cell-based. The conditions noted are these: j774.a1, 3 h.
Data set [17] relates to Escherichia coli. The experiment in a line: Antibacterial activity against Escherichia coli isolate LF82 isolated from colonic mucosal biopsies of patient with Crohn's disease after 24 hrs by Etest antibiotic concentration gradient method. The conditions noted are these: isolate LF82, 24 h.
Data set [18] deals with Escherichia coli. Briefly: Antibacterial activity against mucosa-associated Escherichia coli isolate HM463 isolated from patient with irritable bowel syndrome or sporadic polyps after 24 hrs by Etest antibiotic concentration gradient method. The following applies: isolate HM463, 24 h.
Data set [19] has as its system Escherichia coli. The experiment in a line: Antibacterial activity against mucosa-associated Escherichia coli isolate HM484 isolated from patient with irritable bowel syndrome or sporadic polyps after 24 hrs by Etest antibiotic concentration gradient method. The following applies: isolate HM484, 24 h.
Data set [20] concerns Escherichia coli. Briefly: Antibacterial activity against mucosa-associated Escherichia coli isolate HM488 isolated from patient with irritable bowel syndrome or sporadic polyps after 24 hrs by Etest antibiotic concentration gradient method. The following applies: isolate HM488, 24 h.
Data set [21] has as its system Escherichia coli. The experiment in a line: Antibacterial activity against mucosa-associated Escherichia coli isolates isolated from patients with Crohn's disease by disk diffusion method. The class given is functional.
Data set [22] deals with Escherichia coli. The experiment in a line: Antibacterial activity against Escherichia coli isolate HM605 isolated from colonic mucosal biopsies of patient with Crohn's disease after 24 hrs by Etest antibiotic concentration gradient method. In kind it is functional. The following applies: isolate HM605, 24 h.
The subject of data set [23] is Escherichia coli. Briefly: Antibacterial activity against Escherichia coli ATCC 25922 after 24 hrs by Etest antibiotic concentration gradient method. The class given is functional, organism-based.
For data set [24], the system named is Escherichia coli. Briefly: Antibacterial activity against gentamicin-treated internalized Escherichia coli isolate HM605 isolated from colonic mucosal biopsies of patient with Crohn's disease in mouse J774A1 cells assessed as intracellular killing of bacteria at 1.7 ug/ml after 3 hrs. The class given is functional, J774.A1.
For data set [25], the system named is J774.A1. Briefly: Cytotoxicity against mouse J774A1 cells assessed as macrophage number at 1.7 ug/ml after 3 hrs by total cell protein assay. The class given is cell-based. The conditions noted are these: j774.a1, 3 h.
Data set [26] in a line: Cmax in patient with Billroth-II gastrectomy at 250 mg, po. In kind it is ADME, organism-based. Also noted: dose 250 mg, route oral. The following applies: human, in vivo.
Data set [27] has as its system Escherichia coli. The experiment in a line: Antibacterial activity against Escherichia coli isolates isolated from patients with Crohn's disease at 5 ug/disk by susceptibility testing disk method. The class given is functional.
Data set [28] deals with Escherichia coli. The experiment in a line: Antibacterial activity against gentamicin-treated internalized Escherichia coli isolate HM605 isolated from colonic mucosal biopsies of patient with Crohn's disease in mouse J774A1 cells assessed as intracellular killing of bacteria at […] ug/ml after 3 hrs. In kind it is functional, J774.A1.
The subject of data set [29] is J774.A1. Briefly: Cytotoxicity against mouse J774A1 cells assessed as macrophage number at […] ug/ml after 3 hrs by total cell protein assay. In kind it is cell-based. The following applies: j774.a1, 3 h.
For data set [30], the system named is Escherichia coli. The experiment in a line: Antibacterial activity against Escherichia coli K-12 after 24 hrs by Etest antibiotic concentration gradient method. The class given is functional. The following applies: K-12, 24 h.

SMILES strings stand for the structures. In brackets after ≈: the same amount, converted by molar mass. Activity calls are given as the source filed them.

For `O=C(O)c1cn(C2CC2)c2cc(N3CCNCC3)c(F)cc2c1=O` [CIPROFLOXACIN], the MIC against Escherichia coli [1], against Escherichia coli [2], against Escherichia coli [9], in the data set on Escherichia coli [10], in the data set on Escherichia coli [11] and against Escherichia coli [12] was at most 1 µg/mL each time. The MIC in the data set on Escherichia coli [13], in the data set on Escherichia coli [14], against Escherichia coli [15], in the data set with Escherichia coli [17], with Escherichia coli [18] and against Escherichia coli [19] was at most 1 µg/mL each time. Besides, the MIC against Escherichia coli [20] is at most 1 µg/mL. The compound also registered an MBC against Escherichia coli [3] of 0.3 µg/mL (≈ 0.905 µM). Also, in the data set on Escherichia coli [4], the outcome was Active. Also, the Activity with Escherichia coli [5] is 86%; in the data set with Escherichia coli [6], 87.6%; in the data set on Escherichia coli [7] it was 90.4%; in the data set on Escherichia coli [8], 83.8%; with J774.A1 [16], 90%.

In the case of `CN(C)[C@@H]1C(O)=C(C(N)=O)C(=O)[C@@]2(O)C(O)=C3C(=O)c4c(O)cccc4[C@@](C)(O)[C@H]3C[C@@H]12` [TETRACYCLINE], the Activity in the data set with Escherichia coli [21] is 67%; with Escherichia coli [24] it was 62.8%; in the data set with Escherichia coli [5], 44.8%; in the data set on Escherichia coli [6], 64.2%; with Escherichia coli [7], 62.4%; in the data set with Escherichia coli [8] it was 69.6%. The Activity with J774.A1 [25] amounted to 55.9; in the data set on J774.A1 [16], 90%. In addition, the MIC was at most 4 µg/mL in the data set on Escherichia coli [1]; at most 4 µg/mL in the data set on Escherichia coli [2]; 2 µg/mL (≈ 4.5 µM) against Escherichia coli [22]; at most 4 µg/mL in the data set on Escherichia coli [9]; at most 4 µg/mL against Escherichia coli [10]; at most 4 µg/mL with Escherichia coli [11]. The MIC against Escherichia coli [12], against Escherichia coli [13] and against Escherichia coli [15] was at most 4 µg/mL throughout. In addition, the result with Escherichia coli [23] and in the data set on Escherichia coli [4] was Active. In the data set on Escherichia coli [3], this compound returned an MBC of 1 µg/mL (≈ 2.25 µM). The same compound had a Cmax in data set [26] of 1700 ng/mL.

As for `CO[C@H]1/C=C/O[C@@]2(C)Oc3c(C)c(O)c4c(O)c(c(/C=N/N5CCN(C)CC5)c(O)c4c3C2=O)NC(=O)/C(C)=C\C=C\[C@H](C)[C@H](O)[C@@H](C)[C@@H](O)[C@@H](C)[C@H](OC(C)=O)[C@@H]1C` [RIFAMPIN], the Activity was determined as 0% in the data set with Escherichia coli [27]; 85.1% in the data set with Escherichia coli [28]; 32.6% in the data set on Escherichia coli [5]; 32.8% in the data set with Escherichia coli [6]; 35.8% in the data set with Escherichia coli [7]; 80.2% in the data set on Escherichia coli [8]. The results for the Activity in the data set with J774.A1 [29] and in the data set on J774.A1 [16] were 94.4 and 90%, respectively. The MIC with Escherichia coli [1] is at least 4 µg/mL; against Escherichia coli [2] it was at least 4 µg/mL; against Escherichia coli [22] it was 6 µg/mL (≈ 7.29 µM); in the data set with Escherichia coli [9], at least 4 µg/mL; against Escherichia coli [10], 2 µg/mL (≈ 2.43 µM); against Escherichia coli [11], at least 4 µg/mL. Further, the MIC is at least 4 µg/mL in the data set on Escherichia coli [12]; at least 4 µg/mL against Escherichia coli [13]; at least 4 µg/mL in the data set with Escherichia coli [14]; at least 4 µg/mL with Escherichia coli [15]; 3 µg/mL (≈ 3.65 µM) with Escherichia coli [30]. This compound also registered an MBC in the data set on Escherichia coli [3] of 3 µg/mL (≈ 3.65 µM). Moreover, the outcome in the data set with Escherichia coli [4] was Active.
